# Experimental data published in US20240059693A1, “FUSED BICYCLIC PYRAZOLE DERIVATIVES AND METHODS OF USE THEREOF FOR THE TREATMENT OF HERPESVIRUSES” (Merck Sharp & Dohme LLC, priority 2020, published 2024).
# Where two headings read alike, the source gives them in different places.
# Assays:
# [1] = target: T1, Human cytomegalovirus DNA polymerase (Human cytomegalovirus, UniProt P08546); experiment: HCMV polymerase assay (AlphaLISA); format: biochemical; conditions: HCMV DNA polymerase 0.2 nM, 60 minutes at 37° C.; read-out: CMV (IC50)
# T1 construct: made in house; host or cells: SF21 insect cells (baculovirus vector)
# T1 sequence (P08546 whole entry): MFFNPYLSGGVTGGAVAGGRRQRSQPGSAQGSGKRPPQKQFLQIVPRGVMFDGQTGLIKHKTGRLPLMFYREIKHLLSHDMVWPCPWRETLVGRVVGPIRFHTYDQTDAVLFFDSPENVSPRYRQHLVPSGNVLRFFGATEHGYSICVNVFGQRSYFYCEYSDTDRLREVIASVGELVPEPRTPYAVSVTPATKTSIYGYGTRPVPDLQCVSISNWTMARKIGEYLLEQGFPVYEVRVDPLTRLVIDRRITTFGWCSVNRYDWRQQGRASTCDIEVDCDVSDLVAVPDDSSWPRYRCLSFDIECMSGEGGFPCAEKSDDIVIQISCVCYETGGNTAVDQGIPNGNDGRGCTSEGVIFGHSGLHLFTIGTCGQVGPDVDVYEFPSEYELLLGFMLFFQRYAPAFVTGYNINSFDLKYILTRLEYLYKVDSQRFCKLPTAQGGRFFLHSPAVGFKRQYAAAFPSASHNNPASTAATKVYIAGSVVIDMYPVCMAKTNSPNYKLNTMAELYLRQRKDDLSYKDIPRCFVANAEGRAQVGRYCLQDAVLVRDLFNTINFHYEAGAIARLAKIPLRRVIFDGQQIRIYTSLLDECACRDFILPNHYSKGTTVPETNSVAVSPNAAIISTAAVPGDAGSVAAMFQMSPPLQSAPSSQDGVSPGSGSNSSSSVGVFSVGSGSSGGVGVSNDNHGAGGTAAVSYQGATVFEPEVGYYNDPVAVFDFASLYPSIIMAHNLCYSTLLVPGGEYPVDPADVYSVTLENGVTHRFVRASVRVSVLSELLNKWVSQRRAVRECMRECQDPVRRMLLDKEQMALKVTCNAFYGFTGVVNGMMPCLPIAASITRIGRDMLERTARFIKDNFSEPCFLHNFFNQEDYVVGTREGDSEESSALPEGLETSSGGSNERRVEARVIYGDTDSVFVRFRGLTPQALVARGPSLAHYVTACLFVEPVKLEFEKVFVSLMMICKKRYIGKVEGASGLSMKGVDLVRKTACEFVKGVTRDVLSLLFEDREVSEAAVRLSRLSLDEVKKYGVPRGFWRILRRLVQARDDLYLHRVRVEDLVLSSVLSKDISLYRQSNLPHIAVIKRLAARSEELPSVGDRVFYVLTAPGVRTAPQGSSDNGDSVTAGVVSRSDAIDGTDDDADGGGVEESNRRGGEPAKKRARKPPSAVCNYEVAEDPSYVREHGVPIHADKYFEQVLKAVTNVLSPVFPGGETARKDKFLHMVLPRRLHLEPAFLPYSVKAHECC
# Description: Human cytomegalovirus and varicella zoster virus DNA polymerases were expressed via baculovirus vector in SF21 cells and purified. Heterodimeric nucleic acid substrate used in the herpesvirus polymerase reactions was generated by annealing a 59-mer template to a 17-mer digoxigenin-labeled primer. Polymerase (HCMV final concentration of 0.2 nM; VZV final concentration of 0.4 nM) was combined with an inhibitor compound or DMSO in assay buffer (10 mM HEPES, pH 7.5, 25 mM KCl, 25 mM NaCl, 5 mM MgCl2, 5% glycerol, 0.67 mg/ml bovine serum albuminutes, and 1 mM tris(2-carboxyethyl)phosphine), and this mixture was pre-incubated for 30 minutes at room temperature in 384-well microtiter plates. The polymerization reaction was initiated by the addition of template/primer substrate (final concentration: 1.6 nM), and dNTPs (final concentration: 24 nM dCTP, 24 nMdGTP, 16 nM dATP, 16 nM dTTP, and 0.8 nM biotin-dUTP). After 60 minutes incubation at 37° C., reactions were terminated with quench buffer (25 mM HEPES pH 7.5, 100 mM NaCl, 0.25% Tween-20, 12 mM EDTA, and 1 mg/ml bovine serum albumin). Incorporation of biotinylated UTP was detected with 2.5-ug/ml anti-DIG AlphaLISA acceptor beads and 5-10 ug/ml streptavidin AlphaLISA donor beads (Perkin Elmer). Compound effects were normalized to the window defined by the controls (DMSO only and pre-quenched wells) and were fit using a 4-parameter algorithm to report an IC50.
# [2] = system: HSV2; experiment: Viral qPCR assay, HSV2 in MRC5 cells; format: cell-based, Herpes Simplex Virus type 2; conditions: read-out: HSV2 MRC5 Cell (EC50)
# Description: (§1) MRCS cells, Vero cells, and MeWo cells were obtained from ATCC and were maintained at 37° C./5% CO2/90% relative humidity in Minimal Essential Medium with 10% fetal bovine serum, […] L-glutamine, 100 units/ml penicillin and 100 ug/ml streptomycin. Assay plates were prepared by dispensing compounds dissolved in DMSO into wells of 384 well collagen-coated plates using an ECHO acoustic dispenser. Each compound was tested in a 10-point, serial 3-fold dilution. Controls included uninfected cells and infected cells treated only with DMSO. Assays were initiated by mixing selected cells, in suspension, with virus, and dispensing 50 μl/well infected cells to pre-plated compounds. Plates were incubated at 37° C./5% CO2/90% relative humidity for ˜72 hrs to permit genomic replication, and infected cells were lysed by the addition of an equal volume of lysis buffer (10 mM Tris-HCl, pH8, 50 mM KCl, 2 mM MgCl2, 0.45% NP-40, 0.45% Tween-20, and 100 μg/ml proteinase K). An aliquot of the lysate was transferred to a 384-well PCR plate and incubated at 56° C. for 1 hour and then at 95° C. for 10 min. Levels of a viral gene and of the cellular control, PPIA (Thermo Fisher Assay ID=Hs04194521_s1), were measured in separate 10 μL qPCR assays using TaqMan® Gene Expression Master Mix (Applied Biosystems), and an 7900HT Fast Real-Time PCR System with 384-Well Block Module. 7-point, serial 10-fold dilutions of a plasmid standard were run on each plate to generate a standard curve, and genome copies numbers were calculated by plotting experimental Ct onto linear regression of the standard curve. Viral genome copy numbers were normalized by cellular control copy number, and compound effects were normalized to the window defined by the controls. Calculated % effects were fit using a 4-parameter algorithm, and EC50 was reported.
# as §1, with “gene” for “gene and of the cellular control, PPIA (Thermo Fisher Assay ID=Hs04194521_s1),”, “in” for “in separate”, “Compound effects on viral” for “Viral”, “number” for “numbers were normalized by cellular control copy number, and compound effects”
# [3] = system: VZV; experiment: Viral qPCR assay, VZV in MRC5 cells; format: cell-based, varicella zoster virus; conditions: read-out: VZV MRC5 Cell (IC50)
# Description: as §1
# as §1, with “gene” for “gene and of the cellular control, PPIA (Thermo Fisher Assay ID=Hs04194521_s1),”, “in” for “in separate”, “Compound effects on viral” for “Viral”, “number” for “numbers were normalized by cellular control copy number, and compound effects”
# (§2) VZV: Strain Street was maintained as an infected cell stock in MRC-5 cells. It was assayed in MeWo or MRCS cells and was used at 0.04-0.1 pfu/cell. The assays were performed in growth medium. Primer-probe set was Thermo Fisher Assay ID=AIPAEXQ. HSV-1: Strain F Street was assayed in Vero or MRCS cells and was used at 0.0005-0.004 pfu/cell in growth medium. Primer-probe set was Thermo Fisher Assay ID=AIBJZIB
# [4] = system: HSV-1 Strain F; experiment: Viral qPCR assay, HSV-1 in MRC5 cells; format: cell-based, Herpes Simplex Virus type 1; conditions: read-out: HSV1 MRC5 Cell (EC50)
# Description: as §1
# as §1, with “gene” for “gene and of the cellular control, PPIA (Thermo Fisher Assay ID=Hs04194521_s1),”, “in” for “in separate”, “Compound effects on viral” for “Viral”, “number” for “numbers were normalized by cellular control copy number, and compound effects”
# as §2
# [5] = system: HCMV Strain AD169; experiment: Viral qPCR assay, HCMV in MRC-5 cells; format: cell-based, Human cytomegalovirus; conditions: read-out: CMV MRC5 Cell (EC50)
# Description: as §1
# as §1, with “gene” for “gene and of the cellular control, PPIA (Thermo Fisher Assay ID=Hs04194521_s1),”, “in” for “in separate”, “Compound effects on viral” for “Viral”, “number” for “numbers were normalized by cellular control copy number, and compound effects”
# HCMV: Strain AD169 Street was assayed in MRC-5 cells and was used at 0.05-0.1 pfu/cell. The assays were performed in either growth media or in the same media with 50% fetal bovine serum. Primer-probe set was Thermo Fisher Assay ID=AIFATFK.
# [6] = Human betaherpesvirus 5, AD169, MRC5, 72 h
# [7] = Human alphaherpesvirus 2, MRC5, 72 h
# [8] = Human alphaherpesvirus 3, MRC5, 72 h
# [9] = Human alphaherpesvirus 1, MRC5, 72 h
Structure (SMILES),IC50 [1] [nM],EC50 ([2]; ~72 hrs) [nM],IC50 ([3]; ~72 hrs) [nM],EC50 ([4]; ~72 hrs) [nM],"EC50 ([5]; MRC5 cells, ~72 hrs) [nM]","EC50 [5, 6] [nM]","EC50 [2, 7] [nM]","IC50 [3, 8] [nM]","EC50 [4, 9] [nM]"
CC([C@@H]1CCC(=O)N1)N1Cc2c(C(=O)NCc3ccc(Cl)cc3)nn(C(F)F)c2C1 (stereo partly shown) [Compound 71],76.2,1080,1210,2080,,,,,
"CC(C1CCC(=O)N1)N1Cc2c(C(=O)NCc3ccc(Cl)cc3)nn(C)c2C1 (single isomer, unassigned) [Compound 2]",9.81,119,182,270,176,,,,
"CC(C1CC(F)C(=O)N1)N1Cc2c(C(=O)NCc3ccc(Cl)cc3)nn(C)c2C1 (single isomer, unassigned) [Compound 73]",11.2,,,,,134,464,534,614
O=C1CC[C@H](CN2Cc3c(C(=O)NCc4ccc(Cl)cc4)nn(-c4cnsn4)c3C2)N1 [Compound 22],11,251,413,231,313,,,,
CC1c2c(c(C(=O)NCc3ccc(Cl)cc3)nn2C)CN1C(C)C1CCC(=O)N1 (stereo not shown) [Compound 112],105,233,263,294,148,,,,
O=C1CC[C@@H](CN2Cc3c(C(=O)NCc4ccc(Cl)cc4)nn(-c4nccs4)c3C2)N1 [Compound 42],25.9,,,,,940,1100,1050,996
"CC([C@@H]1CCC(=O)N1)N1Cc2c(C(=O)NCc3ccc(Cl)cc3)nn(-c3nccs3)c2C1 (single isomer, unassigned) [Compound 5]",5.3,248,405,248,392,,,,
CC1c2c(c(C(=O)NCc3ccc(Cl)cc3)nn2C)CN1C(C)C1CCC(=O)N1 (stereo not shown) [Compound 111],57.9,248,402,557,125,,,,
Cn1nc(C(=O)NCc2ccc(Cl)cc2)c2c1CN(C[C@@H]1CCC(=O)N1)C2 [Compound 47],38.1,,,,,328,611,657,878
"O=C1CC[C@@H](CN2Cc3c(C(=O)NCc4ccc(Cl)cc4)nn(C4CCOC4)c3C2)N1 (single isomer, unassigned) [Compound 44]",33.8,2950,2370,2500,1100,,,,
Cn1ccnc1-n1nc(C(=O)NCc2ccc(Cl)cc2)c2c1CN(C[C@H]1CCC(=O)N1)C2 [Compound 20],115,,,,,448,143,309,449
O=C1CC[C@H](CN2Cc3c(C(=O)NCc4ccc(Cl)cc4)nn(-c4ncc5ccccc5n4)c3C2)N1 [Compound 18],71.1,,,,,555,108,368,229
O=C1CC[C@H](CN2Cc3c(C(=O)NCc4ccc(Cl)cc4)nn([C@@H]4CCCOC4)c3C2)N1 [Compound 49],87.5,,,,,3540,,,
O=C1CC[C@H](CN2Cc3c(C(=O)NCc4ccc(Cl)cc4)nn(-c4nc(-c5ccccc5)cs4)c3C2)N1 [Compound 15],31,,,,,1100,,,
O=C1CC[C@H](CN2Cc3c(C(=O)NCc4ccc(Cl)cc4)nn(-c4ncc(O)cn4)c3C2)N1 [Compound 17],36.1,,,,,51400,,,
Cn1nccc1-n1nc(C(=O)NCc2ccc(Cl)cc2)c2c1CN(C[C@H]1CCC(=O)N1)C2 [Compound 24],148,,,,,997,,,
"CC(C)[C@H]1c2c(c(C(=O)NCc3ccc(Cl)cc3)nn2C)CN1C(C)C1CCC(=O)N1 (single isomer, unassigned) [Compound 117]",680,,,,4640,,,,
CC(C1CC(F)C(=O)N1)N1Cc2c(C(=O)NCc3ccc(Cl)cc3)nn(C)c2C1 (stereo not shown) [Compound 74],815,,,,28100,,,,
CCC(C1CCC(=O)N1)N1Cc2c(C(=O)NCc3ccc(Cl)cc3)nn(C)c2C1 (stereo not shown) [Compound 91],8610,,,,99000,,,,
